According to US12128062B2, “Methods for targeting pain directed at metabolic pathways” (UNIVERSITY OF MARYLAND, BALTIMORE, priority 2018, dated 2024):

Key:
[1] = tested on: L4-6 DRG cultures (sensory neurons); assay: Extracellular flux analysis (Seahorse XFp): glutamine oxidation-dependent oxygen consumption rate of dissociated L4-6 DRG cultures from IT-treated mice; format: cell-based, mouse; conditions: glutamine 2 mM; for increase in oxygen consumption rate (OCR) in response to glutamine addition: DRG cultures from mice given 1 μg IT one day earlier, baseline OCR subtracted; for time over which the glutamine-induced OCR increase lasts: DRG cultures from mice given 1 μg IT
Experimental: (§1) In this experiment, mice were injected with 1 μg of teRNA or teRNAmm intrathecally (IT). The next day L4-6 DRGs were dissected and acutely dissociated for extracellular flux analysis. One day post teRNA and teRNA mm injection L4-6 DRGs were dissected and proteins were extracted for western blot analysis. In an independent experiment, mice received plantar incision and were allowed to recover. On day 10 baseline measurements were performed, which was followed by intraplantar injection of PGE2. Allodynia testing was preformed form on days 14, 15, 21 and 24. Intrathecal teRNA or teRNAmm (1 μg) were injected on day 14 following the allodynia testing.
In this experiment, L4-6 DRGs were dissected form naïve, teRNAmm and teRNA treated mice. Lumbar 4-6 DRGs were placed in Hank's Buffered Salt Solution (HBSS, Thermo Fisher, Cat #14170112) on ice. The ganglia were dissociated enzymatically with collagenase A (1 mg/ml, 25 min, Millipore Sigma, Cat #10103578001) and collagenase D (1 mg/ml, Millipore Sigma, Cat #11088858001) with papain (30 U/ml, Millipore Sigma, Cat #10108014001) for 20 min at 37° C. To eliminate debris and large diameter sensory neurons, 70 μm (Thermo Fisher, Cat #087712) cell strainers were used. The dissociated cells were resuspended in DMEM/F12 (Thermo Fisher, Cat #10565042) containing 1× pen-strep (Thermo Fisher, Cat #15070063) and 10% fetal bovine serum (Millipore Sigma, Cat #F2442). The cells were plated in Seahorse XFp Cell Culture Miniplate (Agilent, Cat #103025-100). These cultures were incubated overnight at 37° C. in a humidified 95% air/5% CO2 incubator. The metabolic changes were characterized by analyzing the glycolysis and oxidative phosphorylation rates of sensory neurons using extracellular flux analyzer, Seahorse XFp (Agilent). Dissociated L4-6 primary afferents were incubated in DMEM (Millipore Sigma, Cat #D5030) without glutamine, pyruvate or glucose, Baseline oxygen consumption rate (OCR) measurements were followed by the addition of glutamine (2 mM). The baseline OCR values were subtracted from each of the other values to determine glutamine oxidation-dependent OCR.

[2] = Hyperalgesic priming model (plantar incision then intraplantar PGE2), tactile thresholds by von Frey filaments; format: in vivo, mouse
Excerpt: The hyperalgesic priming model was utilized in the experiments because it is well-characterized and used to study the neuroplasticity underlying persistent pain sensitization and the transition of acute pain to chronic pain [13-17]. As shown at the top FIG. 2, the model is comprised of three phases. 1) The acute phase, also called the induction phase, causes transient tactile hypersensitivity in response to various pro-nociceptive compounds and resolves within a week. The hindpaw plantar incision model was used for the acute phase, which comprises incision of the skin, the underlying fascia, and the plantar flexor digitorum brevis muscle as the initial injury. This model was selected since it lacks injury to major peripheral nerves and typically resolves within a week. 2) The primed phase follows the acute phase. The animals are not hypersensitive and this phase can last for at least 3 weeks.
In this experiment, mice received plantar incision and their tactile thresholds were determined using von Frey filaments. Mice were placed in small cages with a mesh floor individually. Calibrated monofilaments of differing forces are applied perpendicularly to the hind paw. Withdraws, licking or flinching of the paw in response to the filament is considered a positive response. The results are provided in FIG. 2A where “Threshold (grams)” on the y-axis represents the amount of force required for the mice to withdraw the hindpaw before (baseline, BL) and after the incision. Reduced withdrawal threshold indicates increased pain.
In this experiment, the same mice used in the acute phase were allowed to recover and on Day 10 received intraplantar PGE2. The results are provided in FIG. 2B where “Threshold (grams)” on the y-axis represents the amount of force required for the mice to withdraw their hindpaw which is an indication of tactile hypersensitivity and pain. […] 1, 2, 3 and 4 days post-PGE2 injection, *** P<0.001. […] PGE2 injection caused profound allodynia in mice that had plantar incision.
as §1, with “testing. […]” for “testing.”

[3] = Bortezomib-induced CIPN (neuropathic pain) mouse model, tactile thresholds / allodynia; format: in vivo
Experimental: teRNA was administered to mice which have developed neuropathic pain due to bortezomib treatment. In this experiment, mice were treated with intraperitoneal 0.2 mg/kg of bortezomib (Millipore Sigma, Cat #5.04314.0001) for 5 consecutive days for a total dose of 1 mg/kg. The vehicle group received intraperitoneal saline for 5 consecutive days. The mice that receive bortezomib develop profound allodynia. The efficacy of teRNA for treating and preventing the development of bortezomib-induced neuropathic pain was explored.
Treatment with bortezomib (bort) from day 0-4 (black arrow) led to the development of severe neuropathic pain. Baseline thresholds were measured on day 0 and allodynia was tested on days 14, 15, 17 and 21.
In a second experiment, mice were treated with either saline or bortezomib on days 0-4 (intraperitoneal 0.2 mg/kg of bortezomib for 5 consecutive days for a total dose of 1 mg/kg). On day 7 mice that received bortezomib developed profound neuropathic pain.
To determine if teRNA can prevent the development of chemotherapy-induced neuropathic pain, mice were co-treated with IT teRNA (days 0, 2 and 4) and intraperitoneal (IP) bortezomib (days 0-4) (intraperitoneal 0.2 mg/kg of bortezomib for 5 consecutive days for a total dose of 1 mg/kg).

ASCT2 = assay: Western blot of ASCT2 protein in L4-6 DRGs after intrathecal injection; format: in vivo, mouse; conditions: IT 1 μg, DRGs dissected 24 hrs post injection; versus teRNAmm control
Experimental: Western blot (WB) analyses were performed to examine changes in metabolic genes that are known to regulate pyruvate and glutamine oxidation. In these experiments, lumbar 4-6 dorsal root ganglia (L4-6 DRGs) which innervate the hindpaw were dissected on Day 1, 9 and 14 post-plantar incisions (as described above). Protein was extracted from the L4-6 DRGs in lysis buffer (50 mM Tris HCl, 1% Triton X-100, 150 mM NaCl, and 1 mM EDTA at pH 7.4) containing protease and phosphatase inhibitor mixtures with an ultrasonicator on ice, and cleared of cellular debris by centrifugation at 14,000 relative centrifugal force for 15 min at 4° C. Fifteen micrograms of protein per well were loaded and separated by standard 7.5% or 10% SDS-PAGE. Proteins were transferred to Immobilon-P membranes (Millipore Sigma, Cat #IPVH00010) and then blocked with 5% dry milk for 3 h at room temperature. The blots were incubated with primary antibody overnight at 4° C. and detected the following day with donkey anti-rabbit or goat anti-mouse antibody conjugated to horseradish peroxidase (1:10,000, Jackson Immunoresearch, Cat #711-036-152, Cat #115-036-062). Signal was detected by enhanced chemiluminescence on films. For assessment of phospho-proteins, membranes were stripped and reprobed for total-protein of interest for normalization. Densitometric analyses were done using UN-SCAN-IT 7.1 software (Silk Scientific Corp.). […]

[4] = single IT 1 μg, 14 days post plantar incision (4 days post PGE2)
[5] = IT 1 μg on days 7, 9 and 11, bortezomib IP 0.2 mg/kg days 0-4
[6] = single IT 1 μg on day 14, bortezomib IP 0.2 mg/kg days 0-4

Question: Which results are given for “5′-CAUACUACGCCGUAGC-3′ (2'-O-methyl modifications, further chemistry not given here) [teRNAmm, reference compound]”?
Answer: increase in oxygen consumption rate (OCR) in response to glutamine addition [1]: 10%; time over which the glutamine-induced OCR increase lasts [1]: ≤ 30 min; effect on tactile hypersensitivity / tactile thresholds, incision group [2, 4]: did not display any change in their tactile thresholds; effect on existing bortezomib-induced neuropathic pain, repeated treatment [3, 5]: did not impact the bortezomib-induced neuropathic pain; effect on bortezomib-induced neuropathic pain / tactile thresholds, single treatment [3, 6]: did not impact the tactile thresholds

Question: What does the source list for “5′-CAUAGAUCCGGGAUGC-3′ (2'-O-methyl modifications, further chemistry not given here) [teRNA]”?
Answer: increase in oxygen consumption rate (OCR) in response to glutamine addition [1]: around 20%; time over which the glutamine-induced OCR increase lasts [1]: at least 30 mins; ASCT2 protein in L4-6 DRGs (ASCT2): robust increase; effect on tactile thresholds of the control group (no incision) ([2]; single IT 1 μg on day 14): did not affect the tactile thresholds; duration of alleviation of tactile hypersensitivity, incision group [2, 4]: at least 7 days; effect on tactile hypersensitivity / tactile thresholds, incision group [2, 4]: alleviated tactile hypersensitivity; duration of pain relief, repeated treatment [3, 5]: at least 2 weeks; effect on existing bortezomib-induced neuropathic pain, repeated treatment [3, 5]: prolonged pain relief; prevention of development of bortezomib-induced neuropathic pain, co-treatment ([3]; IT on days 0, 2 and 4 with IP bortezomib 0.2 mg/kg days 0-4): prevented the development of bortezomib-induced neuropathic pain; time post the initiation of bortezomib treatment up to which existing neuropathic pain was alleviated ([3]; IT on days 7, 9 and 11, bortezomib days 0-4): at least 21 days; duration of alleviation of bortezomib-induced neuropathic pain, single treatment [3, 6]: several days; effect on bortezomib-induced neuropathic pain / tactile thresholds, single treatment [3, 6]: reversed the bortezomib-induced neuropathic pain
